Reference: patent US9861616B2, “Methods for treating respiratory diseases and formulations therefor” (priority 2013, dated 2018)
Converted amounts (≈) assume the structure as drawn.

Experiments:
P. aeruginosa (PA) = experiment: MIC by microdilution, 36 clinical and laboratory strains with known efflux phenotype; assay type: cell-based
Method: MICs of 36 clinical and laboratory strains of PA with known efflux phenotype are measured by microdilution in cation-adjusted Muller-Hinton broth (CA-MHB) or in RPMI medium (commonly used in eukaryotic cell culture). Phe-Arg-β-naphthylamide (PaβN, 50 mg/L) and EGTA 5 mM are used to inhibit efflux pumps and alter OM integrity, respectively. P. aeruginosa strain ATCC PAO1 is used as reference. PA12 is a clinical strain overexpressing the 4 main efflux systems (MexAB, MexCD, MexEF, MexXY), PA403 is a laboratory strain deleted in the genes coding for the 4 efflux systems. A series of reference strains or of clinical isolates for which the expression of genes coding for efflux pumps is known is also used for MICs determinations. MICs are measured by microdilution in MH broth or in RPMI medium (used for eukaryotic cells culture) supplemented with 10% of fetal calf serum, or in MH broth supplemented by increasing amounts of serum. EGTA (5 mM) was used as a chelating agent (disrupting outer membrane integrity) and PaβN (50 mg/L) as an unspecific efflux inhibitor.

[1] = test system: MRSA strains from CF patients; experiment: Microdilution MICs against 40 MRSA strains from CF patients; assay type: cell-based, S. aureus; conditions: Staphylococcus aureus, 40 MRSA strains from CF patients
Method: Two strains each of mucoid P. aeruginosa (both pyocyanin positive) and […] MRSA (only one strain with gold colonies) isolated from patients at a CF clinic were tested. Additionally, 2 B. cepacia strains were acquired, from Hershey Medical Center. All strains were identified by standard methods. Only one strain per patient was tested. MLVA was done on all strains to examine clonality, and confirmed that examination is not taking place on only one or a few clones. Strains will be stored in skim milk at −70° C. until use.
Original MICs of each strain to CEM-101 and other comparators were tested by CLSI microdilution methodology. Trays were obtained from Trek, Inc., Cleveland, Ohio. Time-kill macrobroth MIC dilution by CLSI was performed for all synergy testing.

MMP9 activity = experiment: PMA-induced MMP9 activation in U937 cells (gelatin zymography); assay type: cell-based, human
Method: Effects of macrolides on phorbol 12-myristate 13-acetate (PMA)-induced MMP9 activation in U937 cells. […] After 48 h supernatants were collected for zymography. MMP9 enzyme activity was measured by gelatin zymography. Data are expressed relative to standard.
The human monocytic cell line U937 was obtained from the American Type Culture Collection (ATCC, Rockville, Md.). PBMCs from COPD patients were obtained from Brompton hospital and separated by AccuSPIN (Sigma-Aldrich). Cells were cultured in complete growth medium (RPMI 1640) (Sigma-Aldrich) supplemented with 10% fetal bovine serum (FBS) and 1% L-glutamine at 37° C. in a humidified atmosphere with 5% CO2. U937 cells were differentiated into adherent macrophage-like morphology by exposure to PMA (50 ng/mL) for 48 hrs in complete growth medium. Cell viability was assessed microscopically by trypan blue staining. Cell toxicity was determined by MTT assay as needed. This study was approved by the ethics committee of the Royal Brompton Hospitals, and all subjects gave written informed consent.
MMP9 enzyme activity was measured by gelatin zymography. Cell culture supernatants were diluted with equal amount of Laemli sample buffer (Bio-Rad, Hertfordshire, UK) and loaded on a Novex® 10% Zymogram (Gelatin) gel (Invitrogen Ltd, Paisley, UK). After electrophoresis, gels were incubated and rinsed with Novex® zymogram renaturing buffer (Invitrogen) for 30 min at room temperature. The gels were then rinsed in Novex® zymogram developing buffer (Invitrogen) for 30 min at room temperature prior to overnight incubation in the developing buffer at 37° C. After incubation, the gels were stained using a Colloidal Blue Staining Kit (Invitrogen) to visualize the zymogen bands.
The results were expressed as the mean±SEM. Comparisons of data in two groups were performed using the Student's t test or the Wilcoxon signed rank test. Multiple comparisons were made by one-way ANOVA with post hoc test (Dunnett's) as appropriate. The difference was considered significant at p<0.05. IC50 values (50% inhibitory concentration) for macrolides for production of cytokines or MMP9 were calculated using Prism 4.0 (GraphPad Software Inc., San Diego, Calif.).

CC[C@H]1OC(=O)[C@H](C)[C@@H](O[C@H]2C[C@@](C)(OC)[C@@H](O)[C@H](C)O2)[C@H](C)[C@@H](O[C@@H]2O[C@H](C)C[C@H](N(C)C)[C@H]2O)[C@](C)(O)C[C@@H](C)CN(C)[C@H](C)[C@@H](O)[C@]1(C)O [AZM, azithromycin]
MIC (P. aeruginosa (PA); strain 1, efflux AB+, MHB): 128 µg/mL (≈ 171 µM) | MIC (P. aeruginosa (PA); strain 1, efflux AB+, RPMI): 4 µg/mL (≈ 5.34 µM) | MIC (P. aeruginosa (PA); strain 2, efflux CD+, MHB): 512 µg/mL (≈ 684 µM) | MIC (P. aeruginosa (PA); strain 2, efflux CD+, RPMI): 4 µg/mL (≈ 5.34 µM) | MIC (P. aeruginosa (PA); strain 3, efflux EF+, MHB): 64 µg/mL (≈ 85.4 µM) | MIC (P. aeruginosa (PA); strain 3, efflux EF+, RPMI): 2 µg/mL (≈ 2.67 µM) | MIC (P. aeruginosa (PA); strain 4, efflux XY+, MHB): 256 µg/mL (≈ 342 µM) | MIC (P. aeruginosa (PA); strain 4, efflux XY+, RPMI): 2 µg/mL (≈ 2.67 µM) | MIC (P. aeruginosa (PA); strain 11, efflux AB + CD+, MHB): 128 µg/mL | MIC (P. aeruginosa (PA); strain 11, efflux AB + CD+, RPMI): 2 µg/mL | MIC (P. aeruginosa (PA); strain 12, efflux AB + CD + EF + XY+, MHB): 256 µg/mL | MIC (P. aeruginosa (PA); strain 12, efflux AB + CD + EF + XY+, RPMI): 2 µg/mL | MIC (P. aeruginosa (PA); strain 16, efflux AB + XY+, MHB): 256 µg/mL | MIC (P. aeruginosa (PA); strain 16, efflux AB + XY+, RPMI): 4 µg/mL | MIC (P. aeruginosa (PA); strain 21, efflux AB+, MHB): 256 µg/mL (≈ 342 µM) | MIC (P. aeruginosa (PA); strain 21, efflux AB+, RPMI): 2 µg/mL (≈ 2.67 µM) | MIC (P. aeruginosa (PA); strain 22, efflux XY+, MHB): 256 µg/mL (≈ 342 µM) | MIC (P. aeruginosa (PA); strain 22, efflux XY+, RPMI): 2 µg/mL (≈ 2.67 µM) | MIC (P. aeruginosa (PA); strain 40, efflux EF+, MHB): 256 µg/mL (≈ 342 µM) | MIC (P. aeruginosa (PA); strain 40, efflux EF+, RPMI): 2 µg/mL (≈ 2.67 µM) | MIC (P. aeruginosa (PA); strain 41, efflux CD+, MHB): 256 µg/mL (≈ 342 µM) | MIC (P. aeruginosa (PA); strain 41, efflux CD+, RPMI): 2 µg/mL (≈ 2.67 µM) | MIC (P. aeruginosa (PA); strain 48, efflux CD + EF + XY+, MHB): 256 µg/mL | MIC (P. aeruginosa (PA); strain 48, efflux CD + EF + XY+, RPMI): 2 µg/mL | MIC (P. aeruginosa (PA); strain 49, efflux CD + EF + XY+, MHB): 256 µg/mL | MIC (P. aeruginosa (PA); strain 49, efflux CD + EF + XY+, RPMI): 2 µg/mL | MIC (P. aeruginosa (PA); strain 63, efflux AB + EF + XY+, MHB): 256 µg/mL | MIC (P. aeruginosa (PA); strain 63, efflux AB + EF + XY+, RPMI): 2 µg/mL | MIC (P. aeruginosa (PA); strain 68, efflux AB + XY+, MHB): 256 µg/mL | MIC (P. aeruginosa (PA); strain 68, efflux AB + XY+, RPMI): 2 µg/mL | MIC (P. aeruginosa (PA); strain 133, efflux EF + XY+, MHB): 256 µg/mL | MIC (P. aeruginosa (PA); strain 133, efflux EF + XY+, RPMI): 4 µg/mL | MIC (P. aeruginosa (PA); strain 156, efflux EF + XY+, MHB): 512 µg/mL | MIC (P. aeruginosa (PA); strain 156, efflux EF + XY+, RPMI): 4 µg/mL | MIC (P. aeruginosa (PA); strain 168B, efflux CD + XY+, MHB): 512 µg/mL | MIC (P. aeruginosa (PA); strain 168B, efflux CD + XY+, RPMI): 4 µg/mL | MIC (P. aeruginosa (PA); strain 207, efflux AB + EF + XY+, MHB): 512 µg/mL | MIC (P. aeruginosa (PA); strain 207, efflux AB + EF + XY+, RPMI): 4 µg/mL | MIC (P. aeruginosa (PA); strain 266B, efflux AB + CD+, MHB): 256 µg/mL | MIC (P. aeruginosa (PA); strain 266B, efflux AB + CD+, RPMI): 2 µg/mL | MIC (P. aeruginosa (PA); strain 333A, efflux AB + EF+, MHB): 256 µg/mL | MIC (P. aeruginosa (PA); strain 333A, efflux AB + EF+, RPMI): 2 µg/mL | MIC (P. aeruginosa (PA); strain 335, efflux AB + EF+, MHB): 512 µg/mL | MIC (P. aeruginosa (PA); strain 335, efflux AB + EF+, RPMI): 4 µg/mL | MIC (P. aeruginosa (PA); strain 391, efflux EF−, MHB): 128 µg/mL (≈ 171 µM) | MIC (P. aeruginosa (PA); strain 391, efflux EF−, RPMI): 2 µg/mL (≈ 2.67 µM) | MIC (P. aeruginosa (PA); strain 392, efflux CD−, MHB): 128 µg/mL (≈ 171 µM) | MIC (P. aeruginosa (PA); strain 392, efflux CD−, RPMI): 2 µg/mL (≈ 2.67 µM) | MIC (P. aeruginosa (PA); strain 394, efflux XY−, MHB): 256 µg/mL (≈ 342 µM) | MIC (P. aeruginosa (PA); strain 394, efflux XY−, RPMI): 4 µg/mL (≈ 5.34 µM) | MIC (P. aeruginosa (PA); strain 395, efflux HI−, MHB): 128 µg/mL (≈ 171 µM) | MIC (P. aeruginosa (PA); strain 395, efflux HI−, RPMI): 2 µg/mL (≈ 2.67 µM) | MIC (P. aeruginosa (PA); strain 396, ompH−, MHB): 64 µg/mL (≈ 85.4 µM) | MIC (P. aeruginosa (PA); strain 396, ompH−, RPMI): 2 µg/mL (≈ 2.67 µM) | MIC (P. aeruginosa (PA); strain 397, efflux AB−, MHB): 8 µg/mL (≈ 10.7 µM) | MIC (P. aeruginosa (PA); strain 397, efflux AB−, RPMI): 1 µg/mL (≈ 1.34 µM) | MIC (P. aeruginosa (PA); strain 398, efflux CD−, MHB): 16 µg/mL (≈ 21.4 µM) | MIC (P. aeruginosa (PA); strain 398, efflux CD−, RPMI): 1 µg/mL (≈ 1.34 µM) | MIC (P. aeruginosa (PA); strain 399, efflux AB − EF−, MHB): 16 µg/mL (≈ 21.4 µM) | MIC (P. aeruginosa (PA); strain 399, efflux AB − EF−, RPMI): 2 µg/mL (≈ 2.67 µM) | MIC (P. aeruginosa (PA); strain 400, efflux XY−, MHB): 8 µg/mL (≈ 10.7 µM) | MIC (P. aeruginosa (PA); strain 400, efflux XY−, RPMI): 2 µg/mL (≈ 2.67 µM) | MIC (P. aeruginosa (PA); strain 401, ompH−, MHB): 8 µg/mL (≈ 10.7 µM) | MIC (P. aeruginosa (PA); strain 401, ompH−, RPMI): 2 µg/mL (≈ 2.67 µM) | MIC (P. aeruginosa (PA); strain 403, efflux AB − CD − EF − XY−, MHB): 8 µg/mL (≈ 10.7 µM) | MIC (P. aeruginosa (PA); strain 403, efflux AB − CD − EF − XY−, RPMI): 2 µg/mL (≈ 2.67 µM) | MIC (P. aeruginosa (PA); strain 405, efflux AB − CD − EF − XY−, MHB): 8 µg/mL (≈ 10.7 µM) | MIC (P. aeruginosa (PA); strain 405, efflux AB − CD − EF − XY−, RPMI): 2 µg/mL (≈ 2.67 µM) | MIC (P. aeruginosa (PA); strain 434, efflux AB + CD + XY+, MHB): 512 µg/mL | MIC (P. aeruginosa (PA); strain 434, efflux AB + CD + XY+, RPMI): 4 µg/mL | MIC (P. aeruginosa (PA); strain PAO1, REFERENCE, MHB): 256 µg/mL (≈ 342 µM) | MIC (P. aeruginosa (PA); strain PAO1, REFERENCE, RPMI): 4 µg/mL (≈ 5.34 µM) | MIC50 ([1]; read-out: MIC50): ≥ 32 µg/mL | MIC90 ([1]; read-out: MIC90): ≥ 32 µg/mL | inhibitory effect on MMP9 activity, lower than CEM-101 (MMP9 activity): 10 fold | IC50 (MMP9 activity; Homo sapiens, U-937, read-out: IC50, PMA-induced MMP9 activation): 212 µM
